Laboratory results taken from US8465912B2, “Methods for the identification of agents that inhibit mesenchymal-like tumor cells or their formation” (OSI Pharmaceuticals, LLC, priority 2009, dated 2013).

Legend:
Type in all cases: cell-based, human
H1650 cells [1] = test: Pharmacological inhibition of ligand-induced EMT (Western blot, morphology); conditions: MEK inhibitor 1 1 μM, LY294002 10 μM, JAK inhibitor 1 0.25 μM
Protocol: Supernatents were micro-centrifuged at max speed, 4° C. for 10 minutes. […] SDS PAGE was run using a Bis-Tris gel system (Invitrogen NuPAGE) with MOPS buffer (Invitrogen NP0001), transferred onto nitrocellulose using the iBLOT system (Invitrogen) and blocked in PBS-T (0.1% Tween 20), 5% non-fat milk or BSA in guidance with primary Ab supplier requirements. […] Secondary HRP labeled antibodies used were: anti Rabbit IgG HRP (Amersham NA934) 1:5000 dilution; anti Mouse IgG HRP (Sigma A2304) 1:2000 dilution. Membranes were visualized using the Supersignal ELISA Femto Maximum Sensitivity Substrate (Pierce).
Cells were treated with inhibitor 30 minutes prior to ligand stimulation. Medium, inhibitor and ligand were refreshed on experimental day 3 to 4. Cells were photographed and lysed in RIPA buffer on day 7 for Western blotting.
To determine what signaling pathways are important for EMT in this model, cells were stimulated for 7 days with OSM, HGF+OSM or OSM+TGFβ in the presence of inhibitors to MEK, PI3K and JAK, since these pathways are established downstream effectors of these ligands. After 7 days, we photographed the cells to show morphology and harvested the cells to analyze markers by immunoblot (FIG. 6).

H1650 cells [2] = test: Induction of EMT by growth factors and cytokines in 2D culture (immunoblot, morphology, confocal); conditions: H1650 2D; for E-cadherin localization by confocal microscopy: 7 days ligand, untreated cells show membrane E-cadherin; for Induction of EMT (E-cadherin, vimentin, morphology): 7 days, HGF, EGF, OSM 100 ng/ml, TGFβ1 10 ng/ml, TNFα 25 ng/ml
Protocol: (§1) The human cell line, H1650 was cultured in […] containing 10% FBS, 2 mM L-Glutamine, and 1 mM sodium pyruvate, at 37° C., 5% CO2. Growth factor and cytokine induced EMT was monitored over 7 days. Growth factor and cytokines were obtained from commercial sources and used as follows: HGF (Hepatocyte growth factor) at 100 ng/ml, EGF (Epidermal Growth Factor) at 100 ng/ml, OSM (Oncostatin M) at 100 ng/ml, TGFβ1 (Transforming growth factor, beta 1) at 10 ng/ml, and TNFα (Tumor necrosis factor alpha) at 25 ng/ml.
Cells were harvested by washing once with PBS, and lysing on ice for 10 minutes with scraping (using a Cell Lifter, Corning Inc. #3008) in ice cold RIPA buffer (Sigma R0278) containing Protease inhibitor (Sigma P8340), Phosphatase inhibitors (Sigma P2850, P5726) and 200 μM Sodium Vanadate. Supernatents were micro-centrifuged at max speed, 4° C. for 10 minutes. Protein content was quantitated using the BCA method (Pierce #23225) and samples were normalized to total protein in Laemli buffer and heated at 100° C. for 10 minutes. SDS PAGE was run using a Bis-Tris gel system (Invitrogen NuPAGE) with MOPS buffer (Invitrogen NP0001), transferred onto nitrocellulose using the iBLOT system (Invitrogen) and blocked in PBS-T (0.1% Tween 20), 5% non-fat milk or BSA in guidance with primary Ab supplier requirements. All primary antibodies were incubated overnight at 4° C. in PBS-T (0.1% Tween 20) in either 5% non-fat milk or BSA, diluted to the following working dilutions: anti E Cadherin (Santa Cruz #sc-21791) 1:500 dilution; anti Vimentin (BD Biosciences #550513) 1:2000 dilution;); 1:1000 dilution; anti β-Actin (Sigma, A5441) 1:10,000 dilution. Secondary HRP labeled antibodies used were: anti Rabbit IgG HRP (Amersham NA934) 1:5000 dilution; anti Mouse IgG HRP (Sigma A2304) 1:2000 dilution. Membranes were visualized using the Supersignal ELISA Femto Maximum Sensitivity Substrate (Pierce).
Cells were fixed in 4% paraformaldehyde (Electron Microscopy Sciences #15710)/PBS (Gibco#14190) for 10 minutes at room temperature, washed with PBS and permeabilized with 0.1% Triton X100 (Sigma P1379) in PBS for 10 minutes at room temp. Cells were blocked with 3% BSA/PBS for at least 15 minutes then incubated with primary antibody diluted in blocking buffer for a minimum of two hours at room temperature. Anti E-Cadherin was used at a 1:75 dilution and anti Vimentin (Millipore #AB5733) was used at a 1:2000 dilution. Cells were washed, incubated with fluorescently-labeled secondary antibodies for one hour, followed by a 5 minute TO-PRO3 nuclear counterstain (Invitrogen #T3605) at room temperature, washed and mounted on slides with Pro-Long Gold anti-fade reagent (Invitrogen #P36934). Secondary fluorescent antibodies used were: anti mouse 488 nm (Invitrogen #A11029) 1:600 dilution; anti chicken TRITC (Chemicon #AP194R) 1:50 dilution. Stained cells were captured on a Leica DMRXE microscope/SP2 scanner using Leica Confocal Software (LCS).
The ability of cell lines to undergo epithelial to mesenchymal transition (EMT) was investigated using different extracellular ligand drivers. A panel of NSCLC, pancreatic, and breast cancer cell lines were screened by treatment of cells for 7 days in presence of respective ligands, either singly or in combination. Initial screening determined the ability of the ligand to cause morphology change, to down-regulate the epithelial marker, E-cadherin or to up-regulate a mesenchymal marker such as vimentin. Potential EMT cell models should up-regulate a mesenchymal marker and display morphology change. More robust models would show a down-regulation of E-cadherin expression.

H1650 cells [3] = test: qPCR of EMT gene changes in response to ligand treatment; conditions: 7 days ligand, qPCR normalized to GAPDH and untreated control
Protocol: as §1
Cells were plated and treated with ligand for 7 days. At the time of harvest, cells were trypsinized and snap frozen for later use. Total RNA was isolated using RNAqueous-4 PCR Kit (Ambion, AM1914). Samples were DNase treated using the Turbo DNA-Free kit (Ambion, AM1907) and reverse transcribed using Superscript III (Invitrogen, 18080-044) for qPCR analysis. Taqman primers and Locked-Nucleic Acid probes were designed using ProbeFinder software (Universal Probe library, Roche). For mRNA analysis, real time PCR was performed using the ABI 7900HT series PCR machine. Thermocycle conditions were as follows: 50° C. for 2 minutes, 95° C. for 10 minutes, 95° C. for 15 seconds, 50° C. for 10 seconds, 60° C. for 1 minute. Data was collected over 45 cycles and then normalized to GAPDH and further normalized to the untreated control sample.

H1650 cells [4] = test: Doubling time of ligand-treated H1650 cells; conditions: 7 days ligand, doubling time over following two weeks, versus untreated
Protocol: as §1
Cells were plated and treated with ligand for 7 days. On day 7, cells were counted and re-plated on 6 cm cell culture dishes. On days 3, 5, 7, 10 and 12, cells were trypsinized and counted to determine the total number of cells in the dish, in duplicate. Doubling time was calculated using the multiple time point method on the website www.doubling-time.com.

Molecule	E-cadherin localization by confocal microscopy (H1650 cells [2])	Induction of EMT (E-cadherin, vimentin, morphology) (H1650 cells [2])	CDH1 gene change (H1650 cells [3])	CDH2 gene change (H1650 cells [3])	CLDN3 gene change (H1650 cells [3])	ERBB3 gene change (H1650 cells [3])	ITGB3 gene change (H1650 cells [3])	MTA3 gene change (H1650 cells [3])	OCLN gene change (H1650 cells [3])	PLAUR gene change (H1650 cells [3])	SNAI1 gene change (H1650 cells [3])	SNAI2 gene change (H1650 cells [3]) [fold change]	SPARC gene change (H1650 cells [3])	TJP3 gene change (H1650 cells [3])	TWIST1 gene change (H1650 cells [3])	VCAN gene change (H1650 cells [3]) [fold change]	VIM gene change (H1650 cells [3]) [fold change]	ZEB1 gene change (H1650 cells [3])	ZEB2 gene change (H1650 cells [3])	Change in doubling time (H1650 cells [4])	also measured
CC(C)(C)c1nc2c3cc[nH]c(=O)c3c3cc(F)ccc3c2[nH]1 [JAK inhibitor 1]																					Effect on HGF+OSM-induced EMT (H1650 cells [1]; 7 days HGF+OSM): partial; Effect on OSM+TGFβ-induced EMT (H1650 cells [1]; 7 days OSM+TGFβ): near complete block; Effect on OSM-induced EMT (H1650 cells [1]; 7 days OSM): near complete block; Effect on EMT in all three ligand models (OSM, HGF+OSM, OSM+TGFβ) (H1650 cells [1]; 7 days, immunoblot and morphology): blocked EMT to varying degrees
EGF: Epidermal Growth Factor, commercial protein ligand used at 100 ng/ml	absence of E-cadherin or mislocalization of E-cadherin to the cytoplasm	partial EMT																			
HGF: Hepatocyte growth factor, commercial protein ligand used at 100 ng/ml to induce EMT in H1650 cells	absence of E-cadherin or mislocalization of E-cadherin to the cytoplasm	partial EMT	NC (Fold changes less than 3 are reported as NC)	NC (Fold changes less than 3 are reported as NC)	NC (Fold changes less than 3 are reported as NC)	NC (Fold changes less than 3 are reported as NC)	NC (Fold changes less than 3 are reported as NC)	NC (Fold changes less than 3 are reported as NC)	NC (Fold changes less than 3 are reported as NC)	NC (Fold changes less than 3 are reported as NC)	NC (Fold changes less than 3 are reported as NC)	6.43	NC (Fold changes less than 3 are reported as NC)	NC (Fold changes less than 3 are reported as NC)	NC (Fold changes less than 3 are reported as NC)	6.71	4.92	NC (Fold changes less than 3 are reported as NC)	NC (Fold changes less than 3 are reported as NC)	modest decrease	ACTN1 gene change (H1650 cells [3]): NC (Fold changes less than 3 are reported as NC)
TGFβ: Transforming growth factor, beta 1, used at 10 ng/ml		do not stimulate EMT by themselves	NC (Fold changes less than 3 are reported as NC)	NC (Fold changes less than 3 are reported as NC)	NC (Fold changes less than 3 are reported as NC)	NC (Fold changes less than 3 are reported as NC)	NC (Fold changes less than 3 are reported as NC)	NC (Fold changes less than 3 are reported as NC)	NC (Fold changes less than 3 are reported as NC)	NC (Fold changes less than 3 are reported as NC)	NC (Fold changes less than 3 are reported as NC)	4.9	NC (Fold changes less than 3 are reported as NC)	NC (Fold changes less than 3 are reported as NC)	NC (Fold changes less than 3 are reported as NC)	5.04	3.99	NC (Fold changes less than 3 are reported as NC)	NC (Fold changes less than 3 are reported as NC)	no effect	
TNFα		do not stimulate EMT by themselves																			
OSM: Oncostatin M, commercial cytokine used at 100 ng/ml (protein, UniProt P13725 26-221, looked up) Oncostatin-M: AAIGSCSKEYRVLLGQLQKQTDLMQDTSRLLDPYIRIQGLDVPKLREHCRERPGAFPSEETLRGLGRRGFLQTLNATLGCVLHRLADLEQRLPKAQDLERSGLNIEDLEKLQMARPNILGLRNNIYCMAQLLDNSDTAEPTKAGRGASQPPTPTPASDAFQRKLEGCRFLHGYHRFMHSVGRVFSKWGESPNRSRR		do not stimulate EMT by themselves	NC (Fold changes less than 3 are reported as NC)	NC (Fold changes less than 3 are reported as NC)	NC (Fold changes less than 3 are reported as NC)	NC (Fold changes less than 3 are reported as NC)	13.25 fold change	NC (Fold changes less than 3 are reported as NC)	NC (Fold changes less than 3 are reported as NC)	NC (Fold changes less than 3 are reported as NC)	NC (Fold changes less than 3 are reported as NC)	3.44	NC (Fold changes less than 3 are reported as NC)	NC (Fold changes less than 3 are reported as NC)	NC (Fold changes less than 3 are reported as NC)	3.88	4.18	3.15 fold change	4.43 fold change	modest decrease	ACTN1 gene change (H1650 cells [3]): NC (Fold changes less than 3 are reported as NC)
